# Data published in the NIST ThermoML archive (doi:10.1016/j.jct.2017.11.009).
# Numbers after ± are expanded uncertainties.
# Test: Boiling temperature at pressure P
# Settings: 101.3 kPa; Liquid; Ebulliometric method (Recirculating still)
row,SMILES,Boiling temperature at pressure P [°C]
1,"OCCO [1,2-ethanediol]",197.17 ± 0.4
2,C=CCO [2-propenol],96.80 ± 0.4
3,CNC=O [N-methylformamide],199.10 ± 0.4
4,CN1CCCC1=O [N-methylpyrrolidone],202.29 ± 0.4
